In patent US8192962B2, “Processes for detecting toxic substances” (Daikin Industries, Ltd., priority 2001, dated 2012):

System: Genes belonging to other category
Test: DNA chip mRNA expression in yeast, genes belonging to other category (Table 9)
Type: cell-based, Saccharomyces cerevisiae S288C
Method: Yeast (Saccharomyces cerevisiae S288C (α SUC2mal mel gap2 CUP1)) were incubated at 25° C. on YPD medium (yeast extract 1%, polypepton 2%, glucose 2%). One of toxic chemical substances was added to the cells at logarithmic growth phase, and the cells were further incubated for two hours. Cells were cultured without any chemical substance in the same condition, and were used as control. Concentrations of the chemical substances were defined to inhibit the growth of the yeast but not lead to death.
After completion of the incubation, the culture was centrifuged to collect the cells. To the cells, sodium acetate buffer (50 mM sodium acetate, 10 mM EDTA, 1% SDS) was added, and the mixture was shaken at 65° C. for five minutes, followed by returning to room temperature, and obtaining the supernatant, of which the procedures were repeated two times. To the supernatant, ½ amount of a solution of phenol/chloroform was added, and the mixture was centrifuged to give a supernatant, which was added with an equal amount of chloroform, and the mixture was centrifuged to give a supernatant. To the supernatant, an equal amount of isopropanol containing 0.3 M sodium acetate was added, and the mixture was allowed to stand at room temperature for 30 minutes, after which the mixture was centrifuged to give a sediment of the whole RNAs. Seventy % ethanol was added to the sediment, and the mixture was again centrifuged to give a sediment, which was then dried and dissolved in water. mRNA was isolated from the whole RNAs as followings. In view of the fact that a poly A chain is attached to the 3′ terminus of mRNA, a polynucleotide having a poly T structure which was immobilized on the surface of latex beads was used to trap the mRNA, and then the mRNA was washed and eluted with spine column (Oligotex-dT30<Super>mRNA Purification Kit, Takara). Reverse transcription of the mRNA was conducted with a reverse transcriptase (Super Script II Reverse Transcriptase; catalogue No. 18064-014, GibcoBRL) using fluorescence-labeled nucleotides to give cDNAs that were introduced with Cy3-dUTP or Cy5-dUTP during the reverse transcription.
The labeled cDNAs were dissolved in TE buffer (10mM Tris-HCl/1 mM EDTA, pH8.0), and the solution was dropped on the DNA chip containing the whole genes of yeast (DNA Chip Research Inc. Japan) so that the cDNAs were hybridized on the DNA chip at 65° C. for over 12 hours. The fluoresces intensity of the DNA chip was read with a scanner, and the ratio relative to the fluorescence intensity resulting from the absence of chemical substance was estimated as the following, which is shown in Tables 1 to 9: […]

## [Cl][Cd][Cl] [(2), CdCl2]
Yeast gene YKL008C
  The level of expressed mRNA in the presence of chemical substance/The level of expressed mRNA in the absence of chemical substance: 0.6
Yeast gene YKL013C
  The level of expressed mRNA in the presence of chemical substance/The level of expressed mRNA in the absence of chemical substance: 0.9
Yeast gene YKL039W
  The level of expressed mRNA in the presence of chemical substance/The level of expressed mRNA in the absence of chemical substance: 1.1
Yeast gene YKL096W
  The level of expressed mRNA in the presence of chemical substance/The level of expressed mRNA in the absence of chemical substance: 0.6
Yeast gene YKL165C
  The level of expressed mRNA in the presence of chemical substance/The level of expressed mRNA in the absence of chemical substance: 2.0
Yeast gene YKL193C
  The level of expressed mRNA in the presence of chemical substance/The level of expressed mRNA in the absence of chemical substance: 0.8
Yeast gene YLR120C
  The level of expressed mRNA in the presence of chemical substance/The level of expressed mRNA in the absence of chemical substance: 1.9
Yeast gene YLR136C
  The level of expressed mRNA in the presence of chemical substance/The level of expressed mRNA in the absence of chemical substance: 9.0
Yeast gene YLR178C
  The level of expressed mRNA in the presence of chemical substance/The level of expressed mRNA in the absence of chemical substance: 6.9
Yeast gene YLR250W
  The level of expressed mRNA in the presence of chemical substance/The level of expressed mRNA in the absence of chemical substance: 1.0
Yeast gene YLR327C
  The level of expressed mRNA in the presence of chemical substance/The level of expressed mRNA in the absence of chemical substance: 3.3
Yeast gene YLR356W
  The level of expressed mRNA in the presence of chemical substance/The level of expressed mRNA in the absence of chemical substance: 2.9
Yeast gene YLR362W
  The level of expressed mRNA in the presence of chemical substance/The level of expressed mRNA in the absence of chemical substance: 1.2
Yeast gene YLR391W
  The level of expressed mRNA in the presence of chemical substance/The level of expressed mRNA in the absence of chemical substance: 0.7
Yeast gene YLR429W
  The level of expressed mRNA in the presence of chemical substance/The level of expressed mRNA in the absence of chemical substance: 1.0
Yeast gene YMR004W
  The level of expressed mRNA in the presence of chemical substance/The level of expressed mRNA in the absence of chemical substance: 0.9
Yeast gene YMR094W
  The level of expressed mRNA in the presence of chemical substance/The level of expressed mRNA in the absence of chemical substance: 0.5
Yeast gene YMR104C
  The level of expressed mRNA in the presence of chemical substance/The level of expressed mRNA in the absence of chemical substance: 14.3
Yeast gene YMR219W
  The level of expressed mRNA in the presence of chemical substance/The level of expressed mRNA in the absence of chemical substance: 1.1
Yeast gene YMR226C
  The level of expressed mRNA in the presence of chemical substance/The level of expressed mRNA in the absence of chemical substance: 1.8
Yeast gene YMR275C
  The level of expressed mRNA in the presence of chemical substance/The level of expressed mRNA in the absence of chemical substance: 0.7
Yeast gene YMR276W
  The level of expressed mRNA in the presence of chemical substance/The level of expressed mRNA in the absence of chemical substance: 1.4
Yeast gene YMR314W
  The level of expressed mRNA in the presence of chemical substance/The level of expressed mRNA in the absence of chemical substance: 1.2
Yeast gene YNL006W
  The level of expressed mRNA in the presence of chemical substance/The level of expressed mRNA in the absence of chemical substance: 2.1
Yeast gene YNL007C
  The level of expressed mRNA in the presence of chemical substance/The level of expressed mRNA in the absence of chemical substance: 2.4
Yeast gene YNL093W
  The level of expressed mRNA in the presence of chemical substance/The level of expressed mRNA in the absence of chemical substance: 6.4
Yeast gene YNL333W
  The level of expressed mRNA in the presence of chemical substance/The level of expressed mRNA in the absence of chemical substance: 1.4
Yeast gene YNR010W
  The level of expressed mRNA in the presence of chemical substance/The level of expressed mRNA in the absence of chemical substance: 1.2
Yeast gene YNR069C
  The level of expressed mRNA in the presence of chemical substance/The level of expressed mRNA in the absence of chemical substance: 1.3
Yeast gene YOL013C
  The level of expressed mRNA in the presence of chemical substance/The level of expressed mRNA in the absence of chemical substance: 1.0
Yeast gene YOL164W
  The level of expressed mRNA in the presence of chemical substance/The level of expressed mRNA in the absence of chemical substance: 4.4
Yeast gene YOR036W
  The level of expressed mRNA in the presence of chemical substance/The level of expressed mRNA in the absence of chemical substance: 0.9
Yeast gene YOR117W
  The level of expressed mRNA in the presence of chemical substance/The level of expressed mRNA in the absence of chemical substance: 1.3
Yeast gene YOR124C
  The level of expressed mRNA in the presence of chemical substance/The level of expressed mRNA in the absence of chemical substance: 1.1
Yeast gene YOR132W
  The level of expressed mRNA in the presence of chemical substance/The level of expressed mRNA in the absence of chemical substance: 1.6
Yeast gene YOR157C
  The level of expressed mRNA in the presence of chemical substance/The level of expressed mRNA in the absence of chemical substance: 1.3
Yeast gene YOR181W
  The level of expressed mRNA in the presence of chemical substance/The level of expressed mRNA in the absence of chemical substance: 0.9
Yeast gene YOR185C
  The level of expressed mRNA in the presence of chemical substance/The level of expressed mRNA in the absence of chemical substance: 1.3
Yeast gene YOR198C
  The level of expressed mRNA in the presence of chemical substance/The level of expressed mRNA in the absence of chemical substance: 0.7
Yeast gene YOR259C
  The level of expressed mRNA in the presence of chemical substance/The level of expressed mRNA in the absence of chemical substance: 1.1
Yeast gene YOR261C
  The level of expressed mRNA in the presence of chemical substance/The level of expressed mRNA in the absence of chemical substance: 1.4
Yeast gene YOR288C
  The level of expressed mRNA in the presence of chemical substance/The level of expressed mRNA in the absence of chemical substance: 1.3
Yeast gene YOR355W
  The level of expressed mRNA in the presence of chemical substance/The level of expressed mRNA in the absence of chemical substance: 0.6
Yeast gene YOR383C
  The level of expressed mRNA in the presence of chemical substance/The level of expressed mRNA in the absence of chemical substance: 4.3
Yeast gene YPL089C
  The level of expressed mRNA in the presence of chemical substance/The level of expressed mRNA in the absence of chemical substance: 1.0
Yeast gene YPL109C
  The level of expressed mRNA in the presence of chemical substance/The level of expressed mRNA in the absence of chemical substance: 2.5
Yeast gene YPL149W
  The level of expressed mRNA in the presence of chemical substance/The level of expressed mRNA in the absence of chemical substance: 1.5
Yeast gene YPL154C
  The level of expressed mRNA in the presence of chemical substance/The level of expressed mRNA in the absence of chemical substance: 3.3
Yeast gene YPR103W
  The level of expressed mRNA in the presence of chemical substance/The level of expressed mRNA in the absence of chemical substance: 1.1
Yeast gene YPR108W
  The level of expressed mRNA in the presence of chemical substance/The level of expressed mRNA in the absence of chemical substance: 1.0
